Experiments:
P. berghei = assay: Standard P. berghei mouse model of infection; type: in vivo; settings: mice, oral
Procedure: (A) The standard P. berghei mouse model for infection is utilized to evaluate the efficacy of candidate compounds, according to the invention, against parasites in vivo. See review of Fidock, et al. (2004) Nature Rev. Drug Discovery 3, 509-20. Compounds are dosed either orally or IP, with the exact regimens (e.g. frequency of dosing, drug concentrations at dosing) determined based on the pharmocokinetic profiles of the individual analogs. […] Inhibition of parasite growth is determined microscopically by staining a thin smear of blood obtained from the test animal using a Wright-Giemsa stain.

P. falciparum = assay: Inhibition of cell proliferation, 3H-hypoxanthine uptake in P. falciparum-infected erythrocytes; type: cell-based; settings: Plasmodium falciparum, 3D7, Erythrocyte, Table 2, 3D7; read-out: P. falciparum 3D7 EC50 (converted)
Excerpt: [formula] II. In Vitro Evaluation of Compound Efficacy on the Human Malaria Parasite, P. falciparum.

[1] = Pharmacokinetic analysis after single oral dose in mice; type: in vivo; settings: for peak plasma concentration: FIG. 1A
Procedure: Pharmacokinetics of the inventive compounds was studied individually in non-fasted male Swiss outbred mice weighing 23-33 g. Mice had access to food and water ad libitum throughout the pre- and post-dose sampling period. Compounds were administered orally by gavage (0.1 mL dose volume per mouse) in a suspension of aqueous vehicle (0.5% w/v sodium caboxymethylcellulose, 0.5% v/v benzyl alcohol and 0.4% v/v Tween 80). A single blood sample was collected from each mouse via cardiac puncture at each indicated time point and transferred to heparinised tubes. Blood samples were centrifuged immediately, supernatant plasma was removed and stored at −20° C. until analysis (within 1-2 weeks). Plasma samples were assayed by LC-MS following protein precipitation with acetonitrile and the concentration of drug in plasma was determined. Pharmacokinetic parameters were calculated on the basis of plasma concentration-time profiles that used the mean plasma concentration at each sample time.

[2] = for a 2.5-fold increase in dose, 20 to 50 mg/kg

AUC0-last increase [1, 2]: 4.4 fold
Cmax increase [1, 2]: 3.5 fold
half-life ([1]; male, Swiss outbred, mouse, plasma, mice, oral, 50 mg/kg, read-out: apparent half-life): 2.95 h
AUC0-last ([1]; mice, oral, 20 mg/kg): 2690 µM·min
Cmax ([1]; mice, oral, 20 mg/kg): 7.9 ± 2.5 µM
apparent half-life ([1]; mice, oral, 20 mg/kg): 1.8 h
peak plasma concentration ([1]; mice, oral, 20 mg/kg): 11 micro molar
AUC0-last ([1]; mice, oral, 50 mg/kg): 11757 µM·min
Cmax ([1]; mice, oral, 50 mg/kg): 27.6 ± 5 µM
time with plasma concentration above 1 μM ([1]; mice, oral, 50 mg/kg): 16 h
peak plasma concentration ([1]; mice, oral, 50 mg/kg): 31 micro molar
SMILES: Cc1cc(Nc2ccc(C(F)(F)F)cc2)n2ncnc2n1 [drawing 22]
parasite growth (P. berghei; 50 mg/kg, blood smear Wright-Giemsa stain, FIG. 1B): suppresses parasite growth
parasite growth, twice a day rather than a single dose (P. berghei; twice a day versus single dose): Greater suppression of parasite growth
EC50 (P. falciparum): 350 ± 3 nM
adverse reactions following oral administration ([1]; mice, oral, 20 mg/kg and 50 mg/kg): No adverse reactions were observed
